This test has as its system A431 cells. The experiment in a line: A431 cell proliferation assay (MTT), alone and in combination with Tarceva. Type of test: cell-based. Conditions: for A431 Cell Proliferation CI Value: combination with Tarceva, CI <0.8 indicates synergy, Example 9, Table 7B; for IC50: further studies, Example 9, Table 7A, read-out: A431 Cell Proliferation (IC50 Value). The procedure: This example describes an assay that measures the ability of compounds to inhibit the proliferation of cultured cells. This assay can also be used to assess whether combining two or more compounds produces additive, synergistic, or antagonistic effects on cell growth.
On day 1, the cells were seeded at 10^3 cells per well in 100 μl of complete media under standard conditions.
On day 2, the cells were washed and 100 μl serum free media was added. The cells were then incubated for at least 2 hours before the addition of compound(s). 20 μl of compound(s) was added to the respective wells and incubated at 37° C., 5% CO2 for 72 hrs.
On day 5, 50 μl of the MTT dye solution was added to each well. The plates were incubated at 37° C., 5% CO2 for 1 hr. The media was then aspirated and the cells were resuspended in […] of DMSO. The plates were allowed to incubate for 5 min at room temperature with gentle shaking.
The absorbance in each well was determined at 560 nm using a Polarstar plate reader.
The A431 cell line over-expresses the EGF receptor, and was utilized to assess the ability of AD4 compounds to inhibit EGF-mediated cell proliferation.

Where [1] appears, read: Homo sapiens, A-431, A431 cells.

Read-outs that look alike come from different tables or passages of the source.

Take `Cc1ccnc(NC(c2ccc(Cl)c(Cl)c2)c2ccc3cccnc3c2O)c1` (stereo not shown) [AD4-12917]: the “A431 Cell Proliferation CI Value” came out at 0.54. As to `Oc1c(C(Nc2ccc(Cl)cn2)c2ccccc2Cl)ccc2cccnc12` (stereo not shown) [AD4-13087], the “A431 Cell Proliferation CI Value” turned out to be 0.70. Further, the IC50 under setting [1] was 1800 nM. The like results for `Oc1c(C(Nc2ccc(Cl)cn2)c2cc(Cl)cc(Cl)c2)ccc2cccnc12` (stereo not shown) [AD4-13094] were, in that order, 0.76 and 1300 nM. Consider `Oc1c(C(Nc2ccc(F)cn2)c2c(F)c(F)cc(F)c2F)ccc2cccnc12` (stereo not shown) [AD4-13070], for which the “A431 Cell Proliferation CI Value” is given as 0.65.

On to `Oc1c(C(Nc2ccc(F)cn2)c2cc(C(F)(F)F)ccc2Cl)ccc2cccnc12` (stereo not shown) [AD4-13049], for which the “A431 Cell Proliferation CI Value” came out at 0.84. The IC50 under setting [1] is 1800 nM. The like results for `Oc1c(C(Nc2ccc(C(F)(F)F)cn2)c2ccc(Cl)c(C(F)(F)F)c2)ccc2cccnc12` (stereo not shown) [AD4-13032] were, in that order, 0.69 and 1800 nM. As for `COc1ccc(C(Nc2cc(C)c(Cl)cn2)c2ccc3cccnc3c2O)cc1OC` (stereo not shown) [AD4-13194], the “A431 Cell Proliferation CI Value” was 0.97. For `Oc1c(C(Nc2ccc(F)cn2)c2cc(Cl)cc(Cl)c2)ccc2cccnc12` (stereo not shown) [AD4-13098], the “A431 Cell Proliferation CI Value” came out at 0.86. Also, the IC50 under setting [1] came out at 1600 nM. As to `Cc1cccc(NC(c2ccc(Cl)c(Cl)c2)c2ccc3ccc(C)nc3c2O)n1` (stereo not shown) [AD4-13080], the “A431 Cell Proliferation CI Value” is 0.68. Take `Cc1cccc(NC(c2ccc(OC(F)(F)F)cc2)c2ccc3cccnc3c2O)n1` (stereo not shown) [AD4-12902]: the “A431 Cell Proliferation CI Value” is 0.7.

With `Cc1cc(Cl)cnc1NC(c1cc(C(F)(F)F)ccc1Cl)c1ccc2cccnc2c1O` (stereo not shown) [AD4-13058], the “A431 Cell Proliferation CI Value” is given as 0.50.

As to `Oc1c(C(Nc2ccccn2)c2cc(Cl)cc(Cl)c2)ccc2cccnc12` (stereo not shown) [AD4-12914], the “A431 Cell Proliferation CI Value” was 0.74. Moreover, under setting [1], the IC50 was 1400 nM. In the same order, the values of `Oc1c(C(Nc2ccc(F)cn2)c2c(F)cccc2Cl)ccc2cccnc12` (stereo not shown) [AD4-13112] are 0.73 and 2100 nM.

Turning to `Cc1ccnc(NC(c2cc(Cl)cc(Cl)c2)c2ccc3cccnc3c2O)c1` (stereo not shown) [AD4-12915], the “A431 Cell Proliferation CI Value” is given as 0.68. Moreover, the IC50 under setting [1] stood at 1100 nM.

For `Cc1cc(Cl)cnc1NC(c1ccc(C(F)(F)F)c(F)c1)c1ccc2cccnc2c1O` (stereo not shown) [AD4-13043], the “A431 Cell Proliferation CI Value” is given as 0.81. Moreover, the IC50 under setting [1] was 2100 nM. Consider `Cc1ccc2ccc(C(Nc3ncc(Cl)cc3C)c3ccc(Cl)cc3Cl)c(O)c2n1` (stereo not shown) [AD4-13200], for which the “A431 Cell Proliferation CI Value” stood at 0.97. The IC50 under setting [1] was 1500 nM. On to `Oc1c(C(Nc2ccc(C(F)(F)F)nc2)c2ccc(C(F)(F)F)cc2)ccc2cccnc12` (stereo not shown) [AD4-13063], for which the “A431 Cell Proliferation CI Value” worked out at 0.77. Moreover, under setting [1], the IC50 is 4400 nM. Turning to `Cc1cc(NC(c2ccc(C(F)(F)F)cc2)c2ccc3cccnc3c2O)ncc1Cl` (stereo not shown) [AD4-13121], the “A431 Cell Proliferation CI Value” was determined as 0.75. The IC50 under setting [1] was 1900 nM. As to `Cc1cc(Cl)cnc1NC(c1ccc(F)cc1F)c1ccc2cccnc2c1O` (stereo not shown) [AD4-13068], the “A431 Cell Proliferation CI Value” is 0.68. Also, the IC50 under setting [1] was found to be 5800 nM. As for `COc1ccc(C(Nc2cc(C)c(Cl)cn2)c2ccc3cccnc3c2O)c(OC)c1OC` (stereo not shown) [AD4-13196], the “A431 Cell Proliferation CI Value” was 0.69. Take `COc1ccc(C(Nc2cccc(C)n2)c2ccc3cccnc3c2O)cc1O` (stereo not shown) [AD4-12909]: the “A431 Cell Proliferation CI Value” turned out to be 0.54. Turning to `Oc1c(C(Nc2ccc(Cl)cn2)c2c(Cl)cccc2Cl)ccc2cccnc12` (stereo not shown) [AD4-13109], the “A431 Cell Proliferation CI Value” amounted to 0.88. Moreover, the IC50 under setting [1] came to 1500 nM. `Oc1c(C(Nc2cc(Cl)ccn2)c2cc(C(F)(F)F)ccc2Cl)ccc2cccnc12` (stereo not shown) [AD4-13060]: the “A431 Cell Proliferation CI Value” is given as 0.76. For the same compound, the IC50 under setting [1] turned out to be 1500 nM.

On to `Oc1c(C(Nc2cc(Cl)c(Cl)cn2)c2ccc(Cl)c(Cl)c2)ccc2cccnc12` (stereo not shown) [AD4-13177], for which the “A431 Cell Proliferation CI Value” was found to be 0.9. Also, the IC50 under setting [1] was 2000 nM. Turning to `Cc1cc(Cl)cnc1NC(c1ccc(F)cc1Cl)c1ccc2cccnc2c1O` (stereo not shown) [AD4-13198], the “A431 Cell Proliferation CI Value” is on record as 0.87. Further, the IC50 (A431 cells) was 3000 nM.

Regarding `COc1ccc(C(Nc2ncc(Cl)cc2C)c2ccc3cccnc3c2O)cc1OC` (stereo not shown) [AD4-13193], the “A431 Cell Proliferation CI Value” is reported as 0.92. For the compound `Cc1cc(NC(c2ccc3cccnc3c2O)c2c(Cl)cccc2Cl)ncc1F` (stereo not shown) [AD4-13125], the “A431 Cell Proliferation CI Value” is given as 0.70. Also, the IC50 under setting [1] was determined as 1700 nM. For the compound `Oc1c(C(Nc2ccc(C(F)(F)F)nc2)c2ccc(Cl)c(Cl)c2)ccc2cccnc12` (stereo not shown) [AD4-13064], the “A431 Cell Proliferation CI Value” came out at 0.64. Besides, the IC50 under setting [1] is 5100 nM. As for `Oc1c(C(Nc2ccc(C(F)(F)F)cn2)c2ccc(C(F)(F)F)cc2)ccc2cccnc12` (stereo not shown) [AD4-13028], the “A431 Cell Proliferation CI Value” is listed as 0.76. For the same compound, the IC50 under setting [1] stood at 1800 nM. As to `Cc1cccc(NC(c2ccc3cccnc3c2O)c2c(F)c(F)cc(F)c2F)n1` (stereo not shown) [AD4-12918], the “A431 Cell Proliferation CI Value” is listed as 0.65.

Regarding `Oc1c(C(Nc2ccc(C(F)(F)F)nc2)c2cc(C(F)(F)F)ccc2Cl)ccc2cccnc12` (stereo not shown) [AD4-13062], the “A431 Cell Proliferation CI Value” worked out at 0.57. Turning to `Oc1c(C(Nc2ccc(C(F)(F)F)cn2)c2ccc(F)cc2F)ccc2cccnc12` (stereo not shown) [AD4-13029], the “A431 Cell Proliferation CI Value” is 0.83. The IC50 under setting [1] worked out at 1800 nM. For `Oc1c(C(Nc2ccc(Cl)cn2)c2c(F)cccc2Cl)ccc2cccnc12` (stereo not shown) [AD4-13091], the “A431 Cell Proliferation CI Value” stood at 0.89. Under setting [1], the IC50 amounted to 1600 nM. In the case of `Cc1cc(Cl)ccc1NC(c1ccc(Cl)cc1Cl)c1ccc2cccnc2c1O` (stereo not shown) [AD4-13201], the “A431 Cell Proliferation CI Value” came out at 0.82. Moreover, the IC50 under setting [1] worked out at 2000 nM. In the same order, the values of `Cc1cc(NC(c2ccc(C(F)(F)F)c(F)c2)c2ccc3cccnc3c2O)ncc1Cl` (stereo not shown) [AD4-13106] are 0.75 and 650 nM. Regarding `Oc1c(C(Nc2ccc(Cl)cn2)c2ccc(F)cc2Cl)ccc2cccnc12` (stereo not shown) [AD4-13088], the “A431 Cell Proliferation CI Value” came to 0.76. The IC50 under setting [1] came to 1500 nM. For the compound `Oc1c(C(Nc2ccc(C(F)(F)F)cn2)c2ccc(C(F)(F)F)cc2F)ccc2cccnc12` (stereo not shown) [AD4-13031], the “A431 Cell Proliferation CI Value” came to 0.74. Moreover, the IC50 under setting [1] amounted to 1600 nM. With `Oc1c(C(Nc2ccc(C(F)(F)F)nc2)c2ccc(C(F)(F)F)cc2F)ccc2cccnc12` (stereo not shown) [AD4-13065], the “A431 Cell Proliferation CI Value” is reported as 0.61. Also, the IC50 under setting [1] was 4600 nM. For `Cc1cccc(NC(c2cc(Cl)cc(Cl)c2)c2cc(Cl)c3cccnc3c2O)n1` (stereo not shown) [AD4-13076], the “A431 Cell Proliferation CI Value” was determined as 0.71. Besides, the IC50 under setting [1] is 1400 nM.

`Cc1cc(NC(c2cc(Cl)cc(Cl)c2)c2ccc3cccnc3c2O)ncc1Cl` (stereo not shown) [AD4-13122]: the “A431 Cell Proliferation CI Value” worked out at 0.84. In addition, the IC50 under setting [1] amounted to 1600 nM. For the compound `Oc1c(C(Nc2ccccn2)c2ccc(Cl)cc2Cl)ccc2cccnc12` (stereo not shown) [AD4-10484], the “A431 Cell Proliferation CI Value” worked out at 0.97. `Oc1c(C(Nc2ccc(Cl)cn2)c2ccc(Cl)c(C(F)(F)F)c2)ccc2cccnc12` (stereo not shown) [AD4-13067]: the “A431 Cell Proliferation CI Value” was 0.63.

Take `Oc1c(C(Nc2ccc(C(F)(F)F)cn2)c2ccc(C(F)(F)F)c(F)c2)ccc2cccnc12` (stereo not shown) [AD4-13034]: the “A431 Cell Proliferation CI Value” is on record as 0.70. Besides, the IC50 under setting [1] is 1900 nM.
